The record followed here is ChEMBL document CHEMBL4619725, “Ultrasounds-mediated 10-seconds synthesis of chalcones as potential farnesyltransferase inhibitors” (Bioorg Med Chem Lett, 2020).

In general, inhibition refers to the percentage by which the read-out fell short of the control. What is called IC50 is the midpoint of a concentration-inhibition curve.

The test system of assay [1] is RPMI-8226. In words: Cytostatic activity against human RPMI8226 cells assessed as growth inhibition at 10 uM incubated for 48 hrs by sulforhodamine B assay relative to control. Type of assay: functional. The note with it: RPMI-8226, 48 h, read-out: GI. (Sulforhodamine B stains cellular protein and so reports cell mass.)
Assay [2] relates to OVCAR-3. In words: Cytostatic activity against human OVCAR3 cells assessed as growth inhibition at 10 uM incubated for 48 hrs by sulforhodamine B assay relative to control. Format: functional. The note with it: for inhibition of growth at 10 µM: OVCAR-3, 48 h, read-out: GI.
Assay [3] concerns LOX IMVI. In words: Cytostatic activity against human LOXIMVI cells assessed as growth inhibition at 10 uM incubated for 48 hrs by sulforhodamine B assay relative to control. Type of assay: functional. The note with it: for inhibition of growth at 10 µM: read-out: GI.
The species named for assay [4] is Homo sapiens. In words: Inhibition of C-terminal His6-tagged human recombinat FTase expressed in Escherichia coli BL21 RIL (DE3) cells using Dansyl-GCVLS peptide and farnesyl pyrophosphate as substrate at 100 uM measured for 15 mins by fluorimetric analysis relative to control.
Assay [5] has as its system SR. In words: Cytostatic activity against human SR cells assessed as growth inhibition at 10 uM incubated for 48 hrs by sulforhodamine B assay relative to control. Format: functional. The note with it: read-out: GI.
For assay [6], the system named is CCRF-CEM. In words: Cytostatic activity against human CCRF-CEM cells assessed as growth inhibition at 10 uM incubated for 48 hrs by sulforhodamine B assay relative to control. Type of assay: functional. The note with it: read-out: GI.
The test system of assay [7] is NCI-H522. In words: Cytostatic activity against human NCI-H522 cells assessed as growth inhibition at 10 uM incubated for 48 hrs by sulforhodamine B assay relative to control. Format: functional. The note with it: NCI-H522, 48 h, read-out: GI.
The subject of assay [8] is HCT-116. In words: Cytostatic activity against human HCT116 cells assessed as growth inhibition at 10 uM incubated for 48 hrs by sulforhodamine B assay relative to control. The note with it: for inhibition of growth at 10 µM: HCT-116, 48 h, read-out: GI. Format: functional.
The test system of assay [9] is KM12. In words: Cytostatic activity against human KM12 cells assessed as growth inhibition at 10 uM incubated for 48 hrs by sulforhodamine B assay relative to control. The note with it: for inhibition of growth at 10 µM: KM12, 48 h, read-out: GI. Type of assay: functional.
The test system of assay [10] is SW-620. In words: Cytostatic activity against human SW620 cells assessed as growth inhibition at 10 uM incubated for 48 hrs by sulforhodamine B assay relative to control. Type of assay: functional. The note with it: for inhibition of growth at 10 µM: SW-620, 48 h, read-out: GI.
In assay [11] the test system is MCF7. In words: Cytostatic activity against human MCF7 cells assessed as growth inhibition at 10 uM incubated for 48 hrs by sulforhodamine B assay relative to control. Format: functional. The note with it: MCF7, 48 h, read-out: GI.
Assay [12] concerns K562. In words: Cytostatic activity against human K562 cells assessed as growth inhibition at 10 uM incubated for 48 hrs by sulforhodamine B assay relative to control. Type of assay: functional. The note with it: K562, 48 h, read-out: GI.
Assay [13] can be described thus: Inhibition of C-terminal His6-tagged human recombinat FTase expressed in Escherichia coli BL21 RIL (DE3) cells using Dansyl-GCVLS peptide and farnesyl pyrophosphate as substrate measured for 15 mins by fluorimetric analysis.

Calls of active or inactive are those of the source. The rule behind the calls is not given here.

Regarding `O=C(c1cccs1)[C@H]1[C@H](c2cccs2)[C@@H](C(=O)c2cccs2)[C@](O)(c2cccs2)C[C@@H]1c1cccs1`, the inhibition of growth at 10 µM in assay [1] was found to be 17.7%; in [3] it was 7.8%; in assay [5], 7.9%; in assay [6] it was 5%; in [7] it was 15.3%; in [8] it was 6.1%. In addition, the inhibition of growth at 10 µM in assay [9] was 3.4%; in assay [11], 12.2%; in assay [12], 14.5%. Also, the “growth inhibition (GI)” value in [2] and in assay [10] was “inactive” each time. Moreover, in [4], the inhibition came to 2%.
`O=C(/C=C/c1cccs1)c1cccs1`: the inhibition in assay [4] stood at 100%. For the same molecule, in [13], the IC50 is 12 µM.
As for `O=C(/C=C/c1ccc(Cl)c(Cl)c1)c1ccc(Cl)nc1`, the inhibition of growth at 10 µM in assay [2] was 11.2%; in [3], 21.9%; in [6], 15.2%; in assay [7], 17%; in assay [8], 19.3%; in [9], 32.4%. Besides, the inhibition of growth at 10 µM came to 17.6% in assay [10], 69.8% in [11] and 25.3% in [12]. The inhibition in assay [4] stood at 22%.
Turning to `O=C(/C=C/c1ccc(Cl)cc1Cl)c1cccs1`, in assay [4], the inhibition was found to be 84%. Moreover, the IC50 in assay [13] amounted to 25.8 µM.
Take `CCOc1ccc(C(=O)/C=C/c2cccs2)cn1`: in [4], the inhibition amounted to 86%. For the same molecule, in assay [13], the IC50 came to 24.9 µM.
For the molecule `O=C(/C=C/c1ccc(Cl)nc1)c1ccc(Cl)c(Cl)c1`, the inhibition of growth at 10 µM turned out to be 43.5% in [2]; 37.6% in [3]; 26.6% in [6]; 45.8% in assay [7]; 55.1% in assay [8]; 44.4% in [9]. The inhibition of growth at 10 µM came out at 40.1% in assay [10], 66.4% in [11] and 48.3% in [12]. The inhibition in assay [4] was 54%.
As for `CCOC(=O)c1cc(C(=O)/C=C/c2ccc3c(c2)Sc2ccccc2N3C)n2ccccc12`, in assay [13], the IC50 was 0.009 µM.
As to `CCOc1ccc([C@]2(O)C[C@H](c3cccs3)[C@@H](C(=O)c3ccc(Cl)nc3)[C@H](c3cccs3)[C@H]2C(=O)c2ccc(Cl)nc2)cn1`, the inhibition in assay [4] is 24%.
As for `O=C(/C=C/c1ccc(Cl)c(Cl)c1)c1ccc(Cl)cc1Cl`, the inhibition in assay [4] was determined as 53%.
`O=C(/C=C/c1cccs1)c1ccc(Cl)cc1Cl`: the inhibition in assay [4] is 70%. The IC50 in [13] stood at 20.8 µM.
For `O=C(/C=C/c1cccs1)c1ccc(Cl)nc1`, the inhibition of growth at 10 µM in assay [1] amounted to 95.8%; in assay [5], 17.5%; in [6] it was 8.6%; in [7], 18%; in assay [8] it was 8.9%; in assay [11], 32.3%. The inhibition of growth at 10 µM in assay [12] was determined as 2.9%. For the same molecule, the “growth inhibition (GI)” value in assay [2], in assay [3], in [9] and in [10] was “inactive” in each case.
For the molecule `CCCCCCCCCCCCCC/C(C(=O)O)=C(\C)C(=O)O` [CHAETOMELLIC ACID A], the inhibition in assay [4] was found to be 100%. Also, the IC50 in [13] amounted to 0.18 µM.
Turning to `O=C(/C=C/c1ccc(Cl)cc1Cl)c1ccc(Cl)cc1Cl`, the inhibition in assay [4] stood at 69%. The IC50 in assay [13] stood at 38.7 µM.
`O=C(c1cccs1)[C@H]1[C@H](c2ccc(Cl)cc2Cl)[C@@H](C(=O)c2cccs2)[C@](O)(c2cccs2)C[C@@H]1c1ccc(Cl)cc1Cl`: the inhibition of growth at 10 µM in assay [1] was 26.8%; in assay [2], 11.5%; in assay [3] it was 3.1%; in assay [5], 10%; in [6] it was 22.3%; in assay [7], 18.5%. The inhibition of growth at 10 µM is 21.2% in [8]; 4.7% in assay [9]; 12.7% in assay [10]; 18.3% in [11]; 16.5% in assay [12]. Besides, the inhibition in assay [4] worked out at 11%.
Consider `O=C(/C=C/c1ccc(Cl)cc1Cl)c1ccc(Cl)nc1`, for which the inhibition of growth at 10 µM in assay [1] is 8.9%; in assay [3], 65.1%; in assay [5], 55.7%; in assay [6], 6.5%; in assay [7], 24.2%; in [8], 56.6%. Besides, the inhibition of growth at 10 µM in assay [9] was determined as 3.6%; in [10], 7.9%; in assay [11] it was 63.4%; in assay [12], 18.9%. Besides, the “growth inhibition (GI)” value in assay [2] is “inactive”. The inhibition in assay [4] was found to be 39%.
As for `O=C(CC(CC(=O)c1cccs1)c1ccc(Cl)cc1Cl)c1cccs1`, the inhibition of growth at 10 µM in assay [1] is 17.3%; in assay [3] it was 10.9%; in assay [5], 9.7%; in assay [6], 7.9%; in [7], 17.3%; in assay [8], 34.7%. For the same molecule, the inhibition of growth at 10 µM in [9] was 4.8%; in [10], 4.4%; in assay [11], 10.2%; in assay [12], 25%. For the same molecule, in assay [2], the “growth inhibition (GI)” value was “inactive”. In [4], the inhibition worked out at 0%.
As to `O=C(/C=C/c1ccc(Cl)nc1)c1ccc(Cl)nc1`, the “growth inhibition (GI)” value in assay [2], in [3], in [8] and in assay [10] was “inactive” throughout. Also, in assay [4], the inhibition was 26%. Further, the inhibition of growth at 10 µM in assay [6] came to 3.1%; in [7] it was 5.3%; in assay [9], 1%; in assay [11] it was 8.8%; in assay [12], 6.1%.
With `O=C(CC(CC(=O)c1ccc(Cl)nc1)c1cccs1)c1ccc(Cl)nc1`, in [4], the inhibition amounted to 19%.
Turning to `O=C(CC(CC(=O)c1ccc(Cl)nc1)c1ccc(Cl)nc1)c1ccc(Cl)nc1`, the inhibition in assay [4] came out at 4%.
As to `O=C(CC(O)c1cccs1)c1cccs1` (racemic), the inhibition in [4] turned out to be 86%. Moreover, the half-maximal inhibitory concentration (IC50) in assay [13] came to 0.6 µM.
As for `Cn1cncc1[C@@](N)(c1ccc(Cl)cc1)c1ccc2c(c1)c(-c1cccc(Cl)c1)cc(=O)n2C` [TIPIFARNIB], the IC50 in assay [13] came to 0.0079 µM.
On to `O=C(/C=C/c1ccc(Cl)nc1)c1cccs1`, for which the inhibition of growth at 10 µM in [2] is 45.8%; in [3] it was 85%; in assay [6], 38.6%; in [7] it was 37.2%; in [8] it was 35.5%; in assay [9], 57.8%. Further, the inhibition of growth at 10 µM came to 47.6% in assay [10], 84.3% in assay [11] and 65.8% in assay [12]. For the same molecule, the inhibition in assay [4] turned out to be 28%.
